Measured values published in PMC6321136, “Combined In Vitro Studies and in Silico Target Fishing for the Evaluation of the Biological Activities of Diphylleia cymosa and Podophyllum hexandrum” (Molecules, 2018).

Assays:
[1] = system: Cytotoxicity, Agonist, p53; parameters: method as in PubChem Bioassay AID 651633; details: ref PubChem Bioassay AID 651633; cited from earlier work
[2] = target: T1, AChE from Electropardus electricous type VI-S (Electrophorus electricus, UniProt O42275); experiment: AChE inhibition microplate assay (Ellman); type: biochemical; details: 400 μg/mL; read-out: Inhibition of AChE Microplate (%I)
T1 construct: purchased Sigma-Aldrich, St. Louis, MO, USA type VI-S (catalogue number not given)
T1 sequence (O42275 24-633): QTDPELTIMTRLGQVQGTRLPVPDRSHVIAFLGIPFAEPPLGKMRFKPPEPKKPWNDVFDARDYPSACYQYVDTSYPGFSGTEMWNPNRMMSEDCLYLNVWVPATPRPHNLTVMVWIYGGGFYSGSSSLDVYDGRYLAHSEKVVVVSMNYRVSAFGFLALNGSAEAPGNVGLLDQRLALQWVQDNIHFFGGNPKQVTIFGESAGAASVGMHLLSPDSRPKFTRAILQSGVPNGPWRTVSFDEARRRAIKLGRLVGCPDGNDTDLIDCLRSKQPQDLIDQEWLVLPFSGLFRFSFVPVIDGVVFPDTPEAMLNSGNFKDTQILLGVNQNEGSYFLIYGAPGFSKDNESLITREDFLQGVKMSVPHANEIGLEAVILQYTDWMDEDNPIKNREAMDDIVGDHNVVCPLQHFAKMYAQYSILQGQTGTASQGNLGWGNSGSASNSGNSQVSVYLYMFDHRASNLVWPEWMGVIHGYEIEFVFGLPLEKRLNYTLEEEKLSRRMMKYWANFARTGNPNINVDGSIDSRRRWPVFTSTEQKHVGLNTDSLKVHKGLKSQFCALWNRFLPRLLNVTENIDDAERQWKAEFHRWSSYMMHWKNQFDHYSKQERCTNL
Protocol: AChE inhibition assay was performed on a 96-well microplate according to Ellman’s method with adaptations. Initially, the extracts were solubilized on MeOH, at 20 mg/mL, and diluted to 4 mg/mL using Tris/HCl buffer solution (50 mM, pH 8.0). A portion of 25 µL of the samples (4 mg/mL) were added to the wells of the microplate, as well as 50 μL of 0.1% BSA solution in Tris/HCl Buffe (pH 8.0), 125 μL of DTNB in Tris/HCl (3 mM) containing NaCl (10 mM) and MgCl2 (20 mM). Subsequently, 25 μL of the ATCI aqueous solution (15 mM) was added to all wells. Then, a background reading was performed at 405 nm using microplate reader (Multiskan Go, Thermo Scientific, Whaltham, MA, USA). The enzymatic reaction was initiated after the addition of 25 µL of AChE solution (AChE from Electropardus electricous type VI-S, 0.2 U/mL, Sigma-Aldrich, St. Louis, MO, USA) in Tris/HCl buffer (50 mM, pH 8.0) containing 0.1% BSA. The kinetic cycle was performed in a period of 25 min, with readings at 5 min intervals, at 405 nm. Physostigmine (Eserine, Sigma, St. Louis, MO, USA) was employed as the positive control. […] The assay was performed in triplicate and the % of inhibition (%I) was calculated according to the following equation: %I = [(a − b)/a] × 100, where a = ΔA/min of control; b = ΔA/min of test sample; ΔA = change in absorbance between time x and time zero. […]

[3] = system: Anticancer, Melanoma; parameters: method as in PubChem Bioassay AID 192; details: ref PubChem Bioassay AID 192; cited from earlier work
[4] = system: Cell Cycle Modulation (counterscreen); parameters: method as in PubChem Bioassay AID 1117350; details: ref PubChem Bioassay AID 1117350; cited from earlier work
[5] = system: Angiogenesis model; parameters: method as in PubChem Bioassay AID 1117340; details: ref PubChem Bioassay AID 1117340; cited from earlier work
[6] = system: Activate, aryl hydrocarbon receptor (AhR); parameters: method as in PubChem Bioassay AID 743122; details: ref PubChem Bioassay AID 743122; cited from earlier work

Compound: COc1cc([C@@H]2c3cc4c(cc3[C@H](O)[C@H]3COC(=O)[C@H]23)OCO4)cc(OC)c1OC [Podophyllotoxin, podophyllotoxin]
- Exper. Activity [1]: Inactive
- inhibition at 400 µg/mL [2]: 32.7 ± 5.38%
- Exper. Activity [3]: Inactive
- Exper. Activity [4]: Active
- Exper. Activity [5]: Active
- Exper. Activity [6]: Active
